Reference: ChEMBL document CHEMBL6096696, “Structure-Activity Relationship Studies of an Autophagy Inhibitor That Targets the ATG14L-Beclin1 Protein-Protein Interaction Reveal Modifications That Improve Potency and Solubility and Maintain Selectivity” (J Med Chem, 2025)
≈ marks a conversion by molar mass, not a printed value. Calls of active or inactive are those of the source. The rule behind the calls is not given here.

How the values were obtained:
[1] = Kinetic aqueous solubility of compound in PBS at pH 7.4 by absorbance based analysis; type: physicochemical; settings: read-out: Kinetic_solubility
HEK293T [2] = experiment: Inhibition of C-terminal Nano-luc tagged UVRAG/C-terminal Halo-tagged Beclin 1 (unknown origin) PPI tranfected with HEK293T cells using […] at 100 uM incubated for 24 hrs by […] assay relative to control; type: cell-based; settings: Homo sapiens, values are per cent of control
HEK293T [3] = experiment: Inhibition of C-terminal Nano-luc tagged ATG14L/C-terminal Halo-tagged Beclin 1 (unknown origin) PPI tranfected with HEK293T cells using […] at 100 uM incubated for 24 hrs by […] assay relative to control; type: cell-based; settings: Homo sapiens, values are per cent of control
HeLa = experiment: Cytotoxicity against human HeLa cells expressing eGFP-LC3 at 100 uM; type: functional, cell-based
[4] = Inhibition of C-terminal Nano-luc tagged ATG14L/C-terminal Halo-tagged Beclin 1 (unknown origin) PPI tranfected with HEK293T cells using […] incubated for 24 hrs by […] assay; type: cell-based, Homo sapiens
[5] = Selectivity ratio of inhibition of C-terminal Nano-luc tagged UVRAG/C-terminal Halo-tagged Beclin 1 (unknown origin) PPI tranfected with HEK293T cells to inhibition of C-terminal Nano-luc tagged ATG14L/C-terminal Halo-tagged Beclin 1 (unknown origin) PPI tranfected with HEK293T cells
A549 = experiment: Inhibition of autophagy in human A549 cells assessed as increase in fluorescence at 100 uM preincubated with DQ-BSA for 1 hr followed by compound addition and measured after 4 hrs by Hoechst 33342 staining based automated fluorescence microscopy analysis; type: functional, cell-based

SMILES: CCCN1C(=O)COc2ccc(-c3cccc(C)c3)cc21
- solubility kinetic [1]: > 100 µM
- residual binding, % of control (HEK293T [2]): 91.5%
- residual binding, % of control (HEK293T [3]): 57.3%
- Activity (HeLa): Active
- IC50 [4]: 42 µM
- Selectivity ratio [5]: 1.59
- inhibition (A549): Active

SMILES: O=C1COc2ccc(-c3cccc(F)c3F)cc2N1Cc1noc(C2CCC2)n1
- solubility kinetic [1]: > 100 µM
- residual binding, % of control (HEK293T [2]): 94.8%
- residual binding, % of control (HEK293T [3]): 85.1%
- Selectivity ratio [5]: 1.11

SMILES: O=C1COc2ccc(-c3ccccc3Cl)cc2N1Cc1noc(C2CCC2)n1
- solubility kinetic [1]: > 100 µM
- residual binding, % of control (HEK293T [2]): 106%
- residual binding, % of control (HEK293T [3]): 89.9%
- Activity (HeLa): Active; Compound Showed Less Cytotoxicity
- Selectivity ratio [5]: 1.17

SMILES: CCCN1C(=O)COc2ccc(-c3ccc(F)cc3F)cc21
- solubility kinetic [1]: > 100 µM
- residual binding, % of control (HEK293T [2]): 84.2%
- residual binding, % of control (HEK293T [3]): 63.8%
- Activity (HeLa): Active
- Selectivity ratio [5]: 1.32

SMILES: CCCN1C(=O)COc2ccc(Nc3ccccc3)cc21
- solubility kinetic [1]: > 100 µM
- residual binding, % of control (HEK293T [2]): 116%
- residual binding, % of control (HEK293T [3]): 75.8%
- Selectivity ratio [5]: 1.54

SMILES: CC(C)c1cccc(-c2ccc3c(c2)N(Cc2noc(C4CCC4)n2)C(=O)CO3)c1
- solubility kinetic [1]: > 100 µM
- residual binding, % of control (HEK293T [2]): 99.1%
- residual binding, % of control (HEK293T [3]): 81.6%
- Selectivity ratio [5]: 1.21

SMILES: COc1ccccc1-c1ccc2c(c1)N(Cc1noc(C3CCC3)n1)C(=O)CO2
- solubility kinetic [1]: > 100 µM
- residual binding, % of control (HEK293T [2]): 104%
- residual binding, % of control (HEK293T [3]): 98.3%
- Selectivity ratio [5]: 1.06

SMILES: Cc1c(Cl)cccc1-c1ccc2c(c1)N(Cc1noc(C3CCC3)n1)C(=O)CO2
- solubility kinetic [1]: > 100 µM
- residual binding, % of control (HEK293T [2]): 120%
- residual binding, % of control (HEK293T [3]): 79.7%
- Activity (HeLa): Active; Compound Showed Less Cytotoxicity
- Selectivity ratio [5]: 1.5

SMILES: O=C1COc2ccc(-c3ccc(F)cc3F)cc2N1Cc1noc(C2CCC2)n1
- solubility kinetic [1]: > 100 µM
- residual binding, % of control (HEK293T [2]): 100%
- residual binding, % of control (HEK293T [3]): 87.9%
- Selectivity ratio [5]: 1.14

SMILES: O=C1COc2ccc(Nc3ccccc3F)cc2N1Cc1noc(C2CCC2)n1
- solubility kinetic [1]: > 100 µM
- residual binding, % of control (HEK293T [2]): 101%
- residual binding, % of control (HEK293T [3]): 82%
- Selectivity ratio [5]: 1.23

SMILES: CCCN1C(=O)COc2ccc(Nc3cccc(Br)c3)cc21
- solubility kinetic [1]: 50 µM (≈ 18.1 µg/mL)
- residual binding, % of control (HEK293T [2]): 116%
- residual binding, % of control (HEK293T [3]): 101%
- Selectivity ratio [5]: 1.14

SMILES: Cc1cccc(Nc2ccc3c(c2)N(Cc2noc(C4CCC4)n2)C(=O)CO3)c1Cl
- solubility kinetic [1]: 100 µM (≈ 42.5 µg/mL)
- residual binding, % of control (HEK293T [2]): 102%
- residual binding, % of control (HEK293T [3]): 89.8%
- Selectivity ratio [5]: 1.13

SMILES: CCCN1C(=O)COc2ccc(Nc3cccc(Cl)c3C)cc21
- solubility kinetic [1]: 50 µM (≈ 16.5 µg/mL)
- residual binding, % of control (HEK293T [2]): 104%
- residual binding, % of control (HEK293T [3]): 101%
- Selectivity ratio [5]: 1.02

SMILES: CC(C)c1ccccc1Nc1ccc2c(c1)N(Cc1noc(C3CCC3)n1)C(=O)CO2
- solubility kinetic [1]: > 100 µM
- residual binding, % of control (HEK293T [2]): 105%
- residual binding, % of control (HEK293T [3]): 82.4%
- Selectivity ratio [5]: 1.27

SMILES: O=C1COc2ccc(Nc3ccc(Cl)cc3Cl)cc2N1Cc1noc(C2CCC2)n1
- solubility kinetic [1]: 50 µM (≈ 22.3 µg/mL)
- residual binding, % of control (HEK293T [2]): 102%
- residual binding, % of control (HEK293T [3]): 79.1%
- Selectivity ratio [5]: 1.29

SMILES: CCCN1C(=O)COc2ccc(-c3ccccc3)cc21
- solubility kinetic [1]: > 100 µM
- residual binding, % of control (HEK293T [2]): 95.7%
- residual binding, % of control (HEK293T [3]): 63.2%
- Activity (HeLa): Active
- IC50 [4]: 56.6 µM
- Selectivity ratio [5]: 1.51
- inhibition (A549): Active

SMILES: O=C1COc2ccc(-c3ccccc3C(F)(F)F)cc2N1Cc1noc(C2CCC2)n1
- solubility kinetic [1]: > 100 µM
- residual binding, % of control (HEK293T [2]): 98%
- residual binding, % of control (HEK293T [3]): 77.4%
- Activity (HeLa): Active; Compound Showed Less Cytotoxicity
- Selectivity ratio [5]: 1.27

SMILES: CCCN1C(=O)COc2ccc(-c3ccc(Cl)cc3Cl)cc21
- solubility kinetic [1]: > 100 µM
- residual binding, % of control (HEK293T [2]): 82.6%
- residual binding, % of control (HEK293T [3]): 65.8%
- Activity (HeLa): Active
- IC50 [4]: 28.8 µM
- Selectivity ratio [5]: 1.25
- inhibition (A549): Active

SMILES: Cc1ccccc1-c1ccc2c(c1)N(Cc1noc(C3CCC3)n1)C(=O)CO2
- solubility kinetic [1]: > 100 µM
- residual binding, % of control (HEK293T [2]): 110%
- residual binding, % of control (HEK293T [3]): 109%
- Selectivity ratio [5]: 1.01

SMILES: O=C1COc2ccc(-c3ccccc3)cc2N1Cc1noc(C2CCC2)n1
- solubility kinetic [1]: > 100 µM
- residual binding, % of control (HEK293T [2]): 105%
- residual binding, % of control (HEK293T [3]): 98.7%
- Selectivity ratio [5]: 1.06

SMILES: CC(C)c1cccc(Nc2ccc3c(c2)N(Cc2noc(C4CCC4)n2)C(=O)CO3)c1
- solubility kinetic [1]: > 100 µM
- residual binding, % of control (HEK293T [2]): 105%
- residual binding, % of control (HEK293T [3]): 88.7%
- Selectivity ratio [5]: 1.18

SMILES: CCCN1C(=O)COc2ccc(Nc3ccccc3Br)cc21
- solubility kinetic [1]: > 100 µM
- residual binding, % of control (HEK293T [2]): 108%
- residual binding, % of control (HEK293T [3]): 82.9%
- Selectivity ratio [5]: 1.49

SMILES: O=C1COc2ccc(-c3ccccc3O)cc2N1Cc1noc(C2CCC2)n1
- solubility kinetic [1]: > 100 µM
- residual binding, % of control (HEK293T [2]): 109%
- residual binding, % of control (HEK293T [3]): 94.9%
- Selectivity ratio [5]: 1.15
